The text below walks through data of patent US20070054887A1, “Methods for treating bladder dysfunction” (BioXell S.p.A, priority 2003, published 2007).

The subject of data set [1] is bcl-2. Briefly: Bcl-2 protein expression in hBC by immunocytochemistry. Conditions: Compound A 10 nM, alone and in the presence of KGF (10 ng/ml) or testosterone (10 nM); FIG. 6. In kind it is cell-based, human. On the procedure: After incubation with the indicated stimuli, slides were washed twice with PBS pH 7.4 and fixed in 3.7% paraformaldehyde in PBS for 15 min at room temperature, followed by permeabilization in 3.7% paraformaldehyde in PBS, containing 0.1% Triton X-100 for 15 min at room temperature. Anti-Bcl-2 mAb (1:40) diluted in PBS containing 2% BSA was added to the slides and incubated overnight at 4° C. Slides were washed three times (5 min) in PBS and incubated 45 min at room temperature with 2% BSA-PBS, containing the secondary antibody (dilution 1:1000). After three washes in PBS, the slides were examined with a phase contrast microscope (Nikon mocrophot-FX microscopes; Nikon, Kogaku, Tokyo, Japan). Slides lacking the primary antibody or stained with the corresponding non-immune serum served as controls.

The subject of data set [2] is rats with CYP-induced cystitis. The experiment in a line: cyclophosphamide (CYP) induced chronic cystitis in rats: conscious cystometry. In kind it is in vivo, Wistar rats. The note with it: 30 and 75 ug/kg, control v Comp A.
Data set [3] in a line: maximum tolerated dose (MTD) in rats. Conditions: rat, in vivo, read-out: MTD. The class given is in vivo. The source says:
The maximum tolerated dose (MTD) in rats is also listed for each compound.

The subject of data set [4] is BOO rats. The experiment in a line: bladder outlet obstruction (BOO) rat model: cystometry and bladder weight. In kind it is in vivo, Sprague-Dawley rats. The note with it: 150 ug/kg/daily over 2 weeks. The protocol:
Female Sprague-Dawley rats, weighing 200-250 g
Group A: BOO rats, treated with the vitamin D analogue over 2 weeks, beginning at day 1 after creation of the obstruction (n=12)
Group B: BOO rats, treated with vehicle over 2 weeks, beginning at day 1 after creation of the obstruction (n=12)
Group C: Sham operated rats, treated with the vitamin D analogue over 2 weeks, beginning at day 1 after surgery (n=12)
a) Cystometry (˜18 hours after last administration of the drug/vehicle, 12 hours after removal of the obstructing ligature) under conscious conditions.
The bladder and urethrovesical junction were exposed through a lower abdominal midline incision. A 0.9 mm metal rod was placed alongside the proximal urethra and a 3-0 silk ligature was tied tightly around the urethra and the rod, which was consequently removed. Sham surgery was performed accordingly, without placing the ligature. After 13 days the ligature was removed and a catheter was inserted into the bladder dome and tunneled subcutaneously.
The following morning after insertion of the catheter, the cystometric investigation was performed without any anesthesia or restraint in a metabolic cage. The amount of voided urine was measured by means of a fluid collector, connected to a force displacement transducer. The bladder was continuously filled with saline at room temperature. The catheter was also connected to a pressure transducer. After a stabilization period of 30-60 minutes, when reproducible voiding patterns are achieved, the following parameters were recorded over a period of 30 min: Basal bladder pressure, micturition pressure, threshold pressure, micturition interval and volume, and non-voiding contractions. The amount of residual urine was investigated manually 3 times, at the end of the cystometry. Bladder capacity was calculated based on the measured values.
The validated bladder outlet obstruction rat model described above was used to test the ability of vitamin D3 analogues to control and treat bladder dysfunction. The objective was to evaluate whether a vitamin D3 analogue (1-alpha-fluoro-25-hydroxy-16,23e-diene-26,27-bishomo-20-epi-cholecalciferol-Compound “A”) at the dose of 150 ug/kg/daily can prevent bladder hypertrophy and bladder dysfunction such as bladder overactivity.
In this model a ligature was surgically placed around the outlet of the catheterized bladder, so that when the catheter was removed, the bladder experienced increased urethral resistance. The rats underwent continuous cystometry to evaluate bladder function. In addition the contractile properties of isolated bladder preparation in response to nerve stimulation and exogenous stimuli in vitro were investigated under electrical field stimulation (EFS).

Data set [5] concerns vimentin. Briefly: vimentin gene and protein expression in serum-starved hBC. The note with it: 10 nM, at any time point tested; FIG. 13. In kind it is cell-based, human. The protocol: Vimentin was detected (mRNA and protein) as per the method for desmin described in Example 1B. Vimentin is a fibroblastic cell marker. Quantitative analysis using real-time RT-PCR of vimentin mRNA expression in serum-starved hBC treated with Compound A (10 nM) was examined at different time points (2-12 days). Results are derived from five different experiments from three distinct hBC preparations and are expressed as fold increase compared to time zero. Control, open columns; Compound A, grey columns.
Western blot detection of vimentin in hBC was performed as follows: Thirty ug of proteins were separated by 10% SDS-PAGE, transferred onto nitrocellulose membrane, and probed with anti-vimentin antibody (1:1000). A band of about 61 kDa was detected in each sample of hBC. […] Results are representative of three independent experiments performed using separate hBC preparations.
Immunocytochemical detection of vimentin in hBC was conducted as follows: Cells were seeded onto sterile glasses, treated with Compound A (10 nM) and processed at the indicated time points with an anti-vimentin antibody (1:1000). […] Quantification of three separate experiments from three distinct preparations of hBC is shown in FIG. 15 (control, open columns; Compound A, grey columns). […]

The subject of data set [6] is hBC. The experiment in a line: androgen-stimulated hBC growth, 48 h incubation. The class given is cell-based, human. Conditions: DHT 10 nM, Compound A 1 nM, finasteride 1 nM, FIG. 5. The text has this: Results are expressed as percentage variation (mean±SEM) over their relative controls and derived from at least three different experiments obtained from three distinct hBC cell preparations. *P<0.05 (vs. control); °P<0.01 (vs. androgen-treated cells).

Data set [7] concerns hBC. The experiment in a line: DNA fragmentation / apoptotic index in hBC by in situ end labelling (ISEL). The note with it: Compound A 10 nM, alone and in the presence of KGF (10 ng/ml) or testosterone (10 nM); FIG. 7.
Data set [8] deals with human bladder cells. Briefly: inhibition of basal human bladder cell growth. In kind it is cell-based. Conditions: Homo sapiens.

The structures appear in SMILES notation.

By MTD is commonly meant the largest dose that counted as tolerated. The term IC50 denotes the concentration that inhibits the measured activity by half. The low end stands for higher potency, the high end for lower potency. On to `C=C1/C(=C\C=C2/CCC[C@]3(C)C([C@@H](C)C/C=C/C(O)(CC)CC)=CC[C@@H]23)C[C@@H](O)C[C@@H]1F` [Compound A, 1-alpha-fluoro-25-hydroxy-16,23E-diene-26,27-bishomo-20-epi-cholecalciferol], for which, in data set [1], the “bcl-2 expression (percentage of bcl-2 stained cells)” value was “significantly inhibits”. Also, in data set [2] (FIG. 23), the bladder capacity entry is “increase”. Further, the non-voiding bladder contractions result in data set [2] (FIG. 24) is “decrease”. Besides, the MTD in data set [3] was 0.1 mg/kg. Moreover, in data set [4] (versus vehicle), the “spontaneous non-voiding contraction amplitude” value is listed as “significant differences versus vehicle” and the “spontaneous non-voiding contraction frequency” value is “significant differences versus vehicle”. For the same molecule, the micturition pressure entry in data set [4] (versus vehicle, FIG. 19) is reported as “significant differences versus vehicle”. Besides, in data set [4] (FIG. 16), the bladder weight result was “slight decrease”. The residual urine entry in data set [4] (FIG. 20) was “absent”. Further, in data set [5], the “vimentin protein expression (Western blot)” value is reported as “failed to affect”. In data set [6], the “hBC proliferation stimulated by the androgen DHT” value is given as “inhibits”. Moreover, in data set [7], the apoptotic index result is reported as “significantly increases”. In data set [8], the IC50 was 6.31 pM.
